Assay results as given in patent publication US20260365682A1, “MODULATORS OF TNF-ALPHA ACTIVITY” (Forward Therapeutics, Inc., priority 2022, published 2026).

Biological target: T1, TNF-α (Homo sapiens, UniProt P01375)
T1 construct: purchased R&D 210-TA-020/CF
Assay: TNF-α Induced HEK Blue Cellular Assay (secreted alkaline phosphatase expression, QUANTI-Blue)
Assay type: cell-based
Settings: HEK Blue TNFα reporter cells; TNF-α 100 μg/ml; 24 hrs at 37° C.; inhibition of secreted alkaline phosphatase; read-out: IC50 value
Outline: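 Compound was serially diluted from […] to 0.5 nM final, then incubated with 10,000 HEK Blue TNFα reporter cells per well and […] TNF-α for 24 h at 37° C. SEAP output was read by QUANTI-Blue absorbance at 620 nm. Inhibition was background-corrected against DMSO controls with and without stimulation, and IC50 was fitted with a 4-parameter logistic equation.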

T1 sequence (P01375 77-233 limits assumed): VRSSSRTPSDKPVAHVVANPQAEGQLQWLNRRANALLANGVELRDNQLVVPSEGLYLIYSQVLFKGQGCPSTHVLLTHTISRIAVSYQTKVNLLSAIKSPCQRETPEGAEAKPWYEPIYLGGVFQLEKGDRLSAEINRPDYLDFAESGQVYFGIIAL

IC50 [nM] | Structure (SMILES)
< 100 | [2H]C([2H])([2H])N1C(=O)c2cccc(OC(F)F)c2[C@H]2C[C@@H]1c1nc3ccc(C#CC#N)cc3n12 [Example 262, 3-((7R,14R)-1-(difluoromethoxy)-6-(methyl-d3)-5-oxo-5,6,7,14-tetrahydro-7,14-methanobenzo[f]benzo[4,5]imidazo[1,2-a][1,4]diazocin-11-yl)propiolonitrile]
< 100 | [2H]C([2H])([2H])N1C(=O)c2cccc(OC(F)F)c2[C@H]2C[C@@H]1c1nc3ccc(C#Cc4nnc(N)s4)cc3n12 [Example 263, (7R,14R)-11-((5-amino-1,3,4-thiadiazol-2-yl)ethynyl)-1-(difluoromethoxy)-6-(methyl-d3)-6,7-dihydro-7,14-methanobenzo[f]benzo[4,5]imidazo[1,2-a][1,4]diazocin-5(14H)-one]
